Reference: ChEMBL document CHEMBL1158618, “Two new asterosaponins, archasterosides A and B, from the Vietnamese starfish Archaster typicus and their anticancer properties” (Bioorg Med Chem Lett, 2010)
Calls of active or inactive are those of the source. The rule behind the calls is not given here.

Tests used:
HeLa = experiment: Cytotoxicity against human HeLa cells by MTS assay; format: functional, cell-based
[1] = Cytotoxicity against mouse promotion-sensitive JB6 Cl41 cells by MTS assay; format: cell-based
JB6 Cl41 = experiment: Induction of NF-kappaB-dependent transcriptional activity in mouse JB6 Cl41 cells at 125 uM after 6 hrs; format: cell-based
[2] = molecular target: Cellular tumor antigen p53 (Mus musculus) (UniProt P02340); experiment: Induction of p53-dependent transcriptional activity in mouse JB6 Cl41 cells at 12.5 uM after 6 hrs; format: cell-based
[3] = molecular target: Transcription factor Jun (Mus musculus) (UniProt P05627); experiment: Induction of AP1-dependent transcriptional activity in mouse JB6 Cl41 cells at 125 uM after 6 hrs; format: cell-based
[4] = Cytotoxicity against mouse promotion-sensitive JB6 Cl41 cells up to 50 uM by MTS assay; format: cell-based

Chain of Transcription factor Jun (Mus musculus) (P05627 whole entry): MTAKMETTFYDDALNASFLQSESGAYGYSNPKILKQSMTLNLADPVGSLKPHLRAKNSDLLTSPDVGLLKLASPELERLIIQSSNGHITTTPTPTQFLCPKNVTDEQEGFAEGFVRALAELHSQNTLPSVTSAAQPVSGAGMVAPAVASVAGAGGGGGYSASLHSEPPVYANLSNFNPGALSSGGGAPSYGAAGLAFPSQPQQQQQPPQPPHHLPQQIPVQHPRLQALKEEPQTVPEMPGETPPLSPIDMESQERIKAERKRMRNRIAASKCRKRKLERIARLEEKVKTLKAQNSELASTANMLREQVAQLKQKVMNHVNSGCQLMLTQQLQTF
Chain of Cellular tumor antigen p53 (Mus musculus) (P02340 whole entry): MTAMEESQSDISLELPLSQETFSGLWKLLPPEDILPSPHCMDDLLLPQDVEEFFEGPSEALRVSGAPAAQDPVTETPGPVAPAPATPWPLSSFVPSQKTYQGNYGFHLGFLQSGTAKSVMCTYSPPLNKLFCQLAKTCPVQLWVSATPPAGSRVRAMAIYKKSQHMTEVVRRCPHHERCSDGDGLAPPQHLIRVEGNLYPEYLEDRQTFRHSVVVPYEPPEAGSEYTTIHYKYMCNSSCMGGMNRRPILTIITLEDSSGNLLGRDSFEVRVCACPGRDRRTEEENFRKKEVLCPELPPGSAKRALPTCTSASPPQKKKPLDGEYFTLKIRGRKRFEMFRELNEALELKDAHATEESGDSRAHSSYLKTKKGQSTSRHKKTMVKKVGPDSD

Compound | IC50 (HeLa) [µM] | IC50 [1] [µM] | Activity (JB6 Cl41) | fold change (FC) [2] | fold change (FC) [3] | Activity [4]
CC[C@@H](C(C)C)[C@@H]1O[C@H]1[C@@](C)(O)[C@H]1[C@@H](O)C[C@H]2[C@@H]3C[C@H](O[C@@H]4O[C@H](CO)[C@@H](O)[C@H](O[C@@H]5O[C@H](C)[C@@H](O[C@@H]6O[C@H](C)[C@@H](O)[C@H](O)[C@H]6O[C@@H]6O[C@H](C)[C@H](O)[C@H](O)[C@H]6O)[C@H](O)[C@H]5O[C@@H]5O[C@H](C)[C@@H](O)[C@H](O)[C@H]5O)[C@H]4O)[C@H]4C[C@@H](OS(=O)(=O)O)CC[C@]4(C)C3=CC[C@]12C [ARCHASTEROSIDE A] | 24 | 37 |  |  |  | 
CC(C)CCC[C@@](C)(O)[C@H]1[C@@H](O)C[C@H]2[C@@H]3C[C@H](O[C@@H]4O[C@H](C)[C@@H](O)[C@H](O[C@@H]5O[C@H](C)[C@@H](O[C@@H]6O[C@H](C)[C@@H](O)[C@H](O)[C@H]6O[C@@H]6O[C@H](C)[C@H](O)[C@H](O)[C@H]6O)[C@H](O)[C@H]5O[C@@H]5O[C@H](C)[C@@H](O)[C@H](O)[C@H]5O)[C@H]4O)[C@H]4C[C@@H](OS(=O)(=O)O)CC[C@]4(C)C3=CC[C@@]21C [ARCHASTEROSIDE B] | 14 | 18 | inactive | 1.3 | 1.7 | 
CC(C)[C@H](C)[C@@H]1O[C@H]1[C@@](C)(O)[C@H]1[C@@H](O)C[C@H]2[C@@H]3C[C@H](O[C@@H]4O[C@H](CO)[C@@H](O)[C@H](O[C@@H]5O[C@H](C)[C@@H](O[C@@H]6O[C@H](C)[C@@H](O)[C@H](O)[C@H]6O[C@@H]6O[C@H](C)[C@H](O)[C@H](O)[C@H]6O)[C@H](O)[C@H]5O[C@@H]5O[C@H](C)[C@@H](O)[C@H](O)[C@H]5O)[C@H]4O)[C@H]4C[C@@H](OS(=O)(=O)[O-])CC[C@]4(C)C3=CC[C@]12C.[Na+] [REGULAROSIDE A] | 110 |  |  |  |  | Non-toxic
